The IC50 is the concentration that inhibits the measured activity by half.

In the first assay the test system is γ-secretase (production of amyloid beta protein Aβ (1-42)). Kind of assay: Cell-based γ-secretase assay with ELISA readout (Aβ (1-42) production). The arrangement: species or system human WT-APP overexpressing CHO cells. The note with it: Geometric mean of at least 2 determinations; Table 3; read-out: Aβ 42 IC50 (μM)*. The procedure:
Cell-Based γ-Secretase Assay with ELISA Readout
The ability of compounds to modulate production of amyloid beta protein Aβ (1-42) was determined using human WT-APP overexpressing CHO cells. Cells were plated at 22,000 cells/100 μL well in 96 well tissue culture treated, clear plates (Falcon) in DMEM/F12 based medium and incubated for 24 hours at 37° C. Compounds for testing were diluted in 100% DMSO to achieve an eleven points, half log, dose response for IC50 determinations. Compounds were added in fresh medium to achieve 1% final DMSO. Appropriate vehicle and inhibitor controls were added to obtain maximum and minimum inhibition values for the assay before the plates were incubated for about 24 hours at 37° C.
Coating of ELISA assay plates was initiated by addition of 50 μL/well of an in-house Aβ (1-42) specific antibody at (4 μg/mL) in 0.1 M NaHCO3 (pH 9.0) into black 384-well Maxisorp® plates (Nunc) and incubated overnight at 4° C. The capture antibody was then aspirated from the ELISA assay plates and 100 μL/well of Blocking Buffer (Dulbecco's PBS, 1.5% BSA (Sigma A7030)) added. Ambient temperature incubation was allowed to proceed for a minimum of two hours before washing 2×100 μL with Wash Buffer (Dulbecco's PBS, 0.05% Tween 20). Assay Buffer (Dulbecco's PBS, 1.0% BSA (Sigma A7030), 0.05% Tween 20) 20 μL/well was then added.
After incubation overnight at 37° C., 5% CO2, 40 μL (in duplicate) of experimental conditioned media were transferred into wells of the blocked ELISA plates containing the capture antibody, followed by overnight incubation at 4° C. Cell toxicity was measured in the corresponding cells after removal of the media for the Aβ (1-42) assay by a colorimetric cell proliferation assay (CellTiter 96® AQueous One Solution Cell Proliferation Assay, Promega) according to the manufacturer's instructions.
After overnight incubation of the ELISA assay plates at 4° C., unbound Aβ peptides were removed thorough (4×100 μL) washes with Wash Buffer. Europium (Eu) labeled (custom labeled, Perkin Elmer) Aβ (1-16) 6e10 Monoclonal Antibody (Covance #SIG-39320 was added, (50 μL /well Eu-6e10 @ 1:5000, 20 uM EDTA) in Assay Buffer. Incubation at ambient temperature for a minimum of 2 hours was followed by (4×100 μL) washes with Wash Buffer, before 50 μL/well of Delfia Enhancement Solution (Perkin Elmer) was added. Following a one hour ambient temperature incubation, the plates were read on an EnVision plate reader (Perkin Elmer) using standard DELFIA TRF settings. Data analysis including inhibitory IC50 determination was performed using nonlinear regression fit analysis (in-house software) and the appropriate plate mean values for the maximum and minimum inhibition controls.
On the technique in general: An ELISA detects its analyte on a solid surface through an enzyme-linked reagent.
Take `COc1nc(C(=O)NC2COc3c(C)cc(Cl)cc32)ccc1-n1cnc(C)c1` (stereo not shown) [Example 52, N-(5-chloro-7-methyl-2,3-dihydro-1-benzofuran-3-yl)-6-methoxy-5-(4-methyl-1H-imidazol-1-yl)pyridine-2-carboxamide]: the IC50 was 0.364 µM.
Same read-out and setting: in the case of `COc1nc(C(=O)NC2COc3ccc(C(F)(F)F)cc32)ccc1-n1cnc(C)c1` (stereo not shown) [Example 56, 6-methoxy-5-(4-methy-1H-imidazol-1-yl)-N-[5-(trifluoromethyl)-2,3-dihydro-1-benzofuran-3-yl]pyridine-2-carboxamide] it was 0.478 µM; in that of `COc1nc(C(=O)NC2COc3cc(F)c(Cl)cc32)ccc1-n1cnc(C)c1` (stereo not shown) [Example 55, N-[5-chloro-6-fluoro-2,3-dihydro-1-benzofuran-3-yl]-6-methoxy-5-(4-methyl-1H-imidazol-1-yl)pyridine-2-carboxamide], 0.423 µM; in that of `COc1nc(C(=O)NC2COc3ccc(Cl)c(C)c32)ccc1-n1cnc(C)c1` (stereo not shown) [Example 51, N-(5-chloro-4-methyl-2,3-dihydro-1-benzofuran-3-yl)-6-methoxy-5-(4-methyl-1H-imidazol-1-yl)pyridine-2-carboxamide], 0.234 µM.

Staying with this assay, now noted: human WT-APP overexpressing CHO cells; Aβ (1-42) ELISA; about 24 hours at 37° C.; free base or salt; read-out: Aβ 42B IC50 (μM) (Geometric Mean of 2-8 Determinations).
On to `COc1nc(C(=O)N2CC[C@H](Oc3ccccc3C(F)(F)F)C2)cnc1-n1cnc(C)c1` [Example 8, 3-methoxy-2-(4-methyl-1H-imidazol-1-yl)-5-({(3S)-3-[2-(trifluoromethyl)-phenoxy]pyrrolidin-1-yl}carbonyl)pyrazine], for which the IC50 turned out to be 0.535 µM.
On the same count and under the same terms, the figure for `COc1nc(C(=O)NCC2CCCC2)cnc1-n1cnc(C)c1` [Example 19, N-(cyclopentylmethyl)-6-methoxy-5-(4-methyl-1H-imidazol-1-yl)pyrazine-2-carboxamide] is 5.77 µM; for `COc1nc(C(=O)N2CC[C@H](Oc3ccccc3C(F)(F)F)C2)ccc1-n1cnc(C)c1` [Example 36, 2-methoxy-3-(4-methyl-1H-imidazol-1-yl)-6-({(3S)-3-[2-(trifluoromethyl)-phenoxy]pyrrolidin-1-yl}carbonyl)pyridine] it is 0.207 µM; for `COc1cc(C(=O)NCc2sc3c(F)ccc(F)c3c2Cl)ncc1-n1cnc(C)c1` [Example 22, N-[(3-chloro-4,7-difluoro-1-benzothien-2-yl)methyl]-4-methoxy-5-(4-methyl-1H-imidazol-1-yl)pyridine-2-carboxamide] it is more than 15.8 µM.
Turning to `COc1nc(C(=O)N[C@@H]2CCc3ccc(Cl)cc32)ccc1-n1cnc(C)c1` [Example 39, N-[(1R)-6-chloro-2,3-dihydro-1H-inden-1-yl]-6-methoxy-5-(4-methyl-1H-imidazol-1-yl)pyridine-2-carboxamide], the 50% inhibitory concentration (IC50) is 1.34 µM.
Same read-out and setting: in the case of `COc1nc(C(=O)N2CC[C@@H](Oc3ccccc3C(F)(F)F)C2)cnc1-n1cnc(C)c1` [Example 9, 3-methoxy-2-(4-methyl-1H-imidazol-1-yl)-5-({(3R)-3-[2-(trifluoromethyl)-phenoxy]pyrrolidin-1-yl}carbonyl)pyrazine] it was 0.643 µM; in that of `COc1nc(C(=O)NCc2ccc(OC(F)(F)F)cc2)ccc1-n1cnc(C)c1` [Example 31, 6-methoxy-5-(4-methyl-1H-imidazol-1-yl)-N-[4-(trifluoromethoxy)benzyl]-pyridine-2-carboxamide], 1.01 µM; in that of `COc1nc(C(=O)N[C@H]2CCc3ccc(Cl)cc32)ccc1-n1cnc(C)c1` [Example 40, N-[(1S)-6-chloro-2,3-dihydro-1H-inden-1-yl]-6-methoxy-5-(4-methyl-1H-imidazol-1-yl)pyridine-2-carboxamide], 0.259 µM.
Turning to `Cc1cn(-c2ncc(C(=O)NCC3(c4ccc(F)cc4)CC3)cc2Cl)cn1` [Example 35, 5-chloro-N-{[1-(4-fluorophenyl)cyclopropyl]-methyl}-6-(4-methyl-1H-imidazol-1-yl)nicotinamide], the IC50 is 5.77 µM.
Same read-out and setting: the figure for `COc1nc(C(=O)NCc2cccc(C(F)(F)F)c2)ccc1-n1cnc(C)c1` [Example 30, 6-methoxy-5-(4-methyl-1H-imidazol-1-yl)-N-[3-(trifluoromethyl)benzyl]-pyridine-2-carboxamide] is 0.502 µM.
Still for that read-out and setting: the figure for `COc1cc(C(=O)N2CC[C@H](Oc3ccccc3C(F)(F)F)C2)cnc1-n1cnc(C)c1` [Example 47, 3-methoxy-2-(4-methyl-1H-imidazol-1-yl)-5-({(3S)-3-[2-(trifluoromethyl)-phenoxy]pyrrolidin-1-yl}carbonyl)pyridine] is 3.44 µM; for `COc1nc(C(=O)NCc2cc(Cl)cc(Cl)c2)ccc1-n1cnc(C)c1` [Example 43, N-(3,5-dichlorobenzyl)-6-methoxy-5-(4-methyl-1H-imidazol-1-yl)pyridine-2-carboxamide] it is 0.216 µM.
As to `COc1nc(C(=O)NC(C)(C)c2cccc(Cl)c2)cnc1-n1cnc(C)c1` [Example 15, N-[1-(3-chlorophenyl)-1-methylethyl]-6-methoxy-5-(4-methyl-1H-imidazol-1-yl)pyrazine-2-carboxamide], the IC50 turned out to be 1.82 µM.
The same measure, in the same setting: the figure for `COc1nc(C(=O)NCCc2nc3ccc(Cl)cc3o2)ccc1-n1cnc(C)c1` [Example 26, N-[2-(6-chloro-1,3-benzoxazol-2-yl)ethyl]-6-methoxy-5-(4-methyl-1H-imidazol-1-yl)pyridine-2-carboxamide] is 0.524 µM.
`COc1nc(C(=O)NCC2(c3ccc(F)cc3)CCC2)cnc1-n1cnc(C)c1` [Example 11, N-{[1-(4-fluorophenyl)-cyclobutyl]methyl}-6-methoxy-5-(4-methyl-1H-imidazol-1-yl)pyrazine-2-carboxamide]: the IC50 turned out to be 1.38 µM.
Still for that read-out and setting: the figure for `COc1nc(C(=O)NCc2cc(C)ccc2C)ccc1-n1cnc(C)c1` [Example 38, N-(2,5-dimethylbenzyl)-6-methoxy-5-(4-methyl-1H-imidazol-1-yl)pyridine-2-carboxamide] is 0.667 µM.
The same measure, in the same setting: in the case of `COc1nc(C(=O)NCc2cnc(-c3ccccc3)s2)cnc1-n1cnc(C)c1` [Example 16, 6-methoxy-5-(4-methyl-1H-imidazol-1-yl)-N-[(2-phenyl-1,3-thiazol-5-yl)methyl]pyrazine-2-carboxamide] it was 1.94 µM.
Turning to `Cc1cn(-c2ccc(C(=O)NCC3(c4cccc(C(F)(F)F)c4)CCOCC3)cn2)cn1` [Example 1, 6-(4-Methyl-1H-imidazol-1-yl)-N-({4-[3-(trifluoromethyl)phenyl]tetrahydro-2H-pyran-4-yl}methyl)nicotinamide], the IC50 is 13.6 µM.
On the same count and under the same terms, in the case of `COc1nc(C(=O)NCC2(c3cccc(C)c3)CCC2)cnc1-n1cnc(C)c1` [Example 10, 6-methoxy-5-(4-methyl-1H-imidazol-1-yl)-N-{[1-(3-methylphenyl)cyclobutyl]-methyl}pyrazine-2-carboxamide] it was 0.827 µM; in that of `COc1cc(C(=O)N2CC[C@@H](Oc3ccccc3C(F)(F)F)C2)cnc1-n1cnc(C)c1` [Example 46, 3-methoxy-2-(4-methyl-1H-imidazol-1-yl)-5-({(3R)-3-[2-(trifluoromethyl)-phenoxy]pyrrolidin-1-yl}carbonyl)pyridine], 2.3 µM; in that of `COc1nc(C(=O)NCc2cccc(Cl)c2C)ccc1-n1cnc(C)c1` [Example 41, N-(3-chloro-2-methylbenzyl)-6-methoxy-5-(4-methyl-1H-imidazol-1-yl)pyridine-2-carboxamide], 0.332 µM.
Still for that read-out and setting: in the case of `COc1nc(C(=O)NCC2(c3ccc(Cl)cc3)CC2)cnc1-n1cnc(C)c1` [Example 7, N-{[1-(4-Chlorophenyl)cyclopropyl]methyl}-6-methoxy-5-(4-methyl-1H-imidazol-1-yl)pyrazine-2-carboxamide] it was 0.591 µM; in that of `COc1nc(C(=O)NCC2(c3ccc(Cl)cc3)CCCC2)cnc1-n1cnc(C)c1` [Example 14, N-{[1-(4-chlorophenyl)cyclopentyl]methyl}-6-methoxy-5-(4-methyl-1H-imidazol-1-yl)pyrazine-2-carboxamide], 1.45 µM; in that of `COc1cc(C(=O)NCCc2c(C)[nH]c3c(Cl)cc(Cl)cc23)ncc1-n1cnc(C)c1` [Example 21, N-[2-(5,7-dichloro-2-methyl-1H-indol-3-yl)ethyl]-4-methoxy-5-(4-methyl-1H-imidazol-1-yl)pyridine-2-carboxamide], 6.25 µM.

Values taken from patent publication US20120202787A1, “Novel Heteroaryl Imidazoles And Heteroaryl Triazoles As Gamma-Secretase Modulators” (Pfizer Inc., priority 2009, published 2012).
